The record followed here is patent US11407761B2, “Derivative of β-apopicropodophyllin and method of preparing thereof” (J&C Sciences, priority 2020, dated 2022).

One test deals with WI-38. In words: PrestoBlue toxicity test, normal cells WI-38. Format: cell-based, Human. As to conditions: WI-38, 48 h. As for the experimental part:
(§1) Human lung cancer cells A549, NCl-H460 and 7 cancer cell lines were cultured in RPMI 1640 medium containing 10% FBS (Gibco, USA) and 1% penicillin-streptomycin. Human colon cancer cell HCT-116 cell line was cultured in McCoy's 5A medium containing 10% FBS (Gibco, USA) and 1% penicillin-streptomycin. Human leukemia cancer cell HL-60 cell line was cultured in IMDM medium containing 20% FBS (Gibco, USA) and 1% penicillin-streptomycin. Human normal cell line WI-38 was cultured in MEM containing 10% FBS (Gibco, USA), 1% penicillin-streptomycin, and 1% Non-Essential Amin Acids solution. Human normal cell line HUVEC cultured in Human Endothelial Growth Medium containing. All the cells were cultured in sterilized cell culture plastic dishes or 96-well plastic plates in a humidified incubator filled with 95% air and 5% CO2 gas and maintained at a temperature of 37° C.
(§2) First, the cells are seeded in a 96-well plate (Nunc, 165305) at a volume of 100 μl, and then cultured in an incubator overnight to confirm that they grow well on the plate. Depending on the concentration of the drugs, each well is treated with 100 μl of the compound and then incubated to allow cells and compounds to react for 48 hrs. PrestoBlue Cell Viability Reagent (Invitrogen, A13262) was added to the compound-treated well, and then the plates were incubated in a humidified incubator at 37° C. for 30 mins. Each well was measured at a fluorescence detected with the wavelength of an excitation of 560 nm and an emission of 590 nm using by microplate reader (BioTek, Synergy H1). The IC50 value is calculated by using the Gen5 software.

The next test deals with H1975. Briefly: PrestoBlue cell viability, H1975. The settings on record: Homo sapiens, NCI-H1975; lung, H1975, 48 h. The class given is cell-based. The procedure:
as §1, §2

In the next test the test system is HUVEC. Briefly: PrestoBlue toxicity test, normal cells HUVEC. The class given is cell-based, Human. The settings on record: 48 h. The procedure:
as §1, §2

The test system of another test is A549. Briefly: PrestoBlue cell viability, A549. The class given is cell-based, Human. The settings on record: Homo sapiens, A549, 48 h, lung. As for the experimental part:
as §1, §2

The subject of another test is H1299. Briefly: PrestoBlue cell viability, H1299. The class given is cell-based. As to conditions: Homo sapiens, NCI-H1299; lung, H1299, 48 h. The procedure:
as §1, §2

Another test has as its system HCT-116. In words: PrestoBlue cell viability, HCT-116. The settings on record: Homo sapiens; colon, HCF116 (HCT-116), 48 h. The class given is cell-based. As for the experimental part:
as §1, §2

The next test concerns H460. In words: PrestoBlue cell viability, H460. As to conditions: Homo sapiens, NCI-H460, 48 h, lung. Format: cell-based, Human. The procedure: as §1, §2
The next test deals with WI-26. Briefly: PrestoBlue toxicity test, normal cells WI-26. Format: cell-based, Human. The settings on record: WI-26, 48 h.
The subject of a further test is HL-60. Briefly: PrestoBlue cell viability, HL-60. Format: cell-based, Human. The settings on record: leukemia, HL-60, 48 h. As for the experimental part:
as §1, §2

The next test relates to HCC827. Briefly: PrestoBlue cell viability, HCC827. The class given is cell-based. The settings on record: Homo sapiens; lung, HCC827, 48 h. The procedure: as §1, §2
The next test relates to H1650. Briefly: PrestoBlue cell viability, H1650. The class given is cell-based. As to conditions: Homo sapiens, NCI-H1650; lung, H1650, 48 h. As for the experimental part: as §1, §2
In another test the test system is CFPAC-1. In words: PrestoBlue cell viability, CFPAC-1. Format: cell-based. As to conditions: Homo sapiens; pancreas, CFPAC-1, 48 h. As for the experimental part:
as §1, §2

The subject of a further test is H146. Briefly: PrestoBlue cell viability, H146. Format: cell-based. The settings on record: Homo sapiens, NCI-H146; lung, H146, 48 h. The procedure:
as §1, §2

Another test concerns K562. In words: PrestoBlue cell viability, K562. Format: cell-based, Human. The settings on record: Homo sapiens; leukemia, K562, 48 h. As for the experimental part: as §1, §2
In another test the test system is BxPC-3. In words: PrestoBlue cell viability, BxPC-3. Format: cell-based. The settings on record: Homo sapiens; pancreas, BxPC-3, 48 h. As for the experimental part: as §1, §2
The next test relates to MDA-MB-231. Briefly: PrestoBlue cell viability, MDA-MB-231. The class given is cell-based. As to conditions: Homo sapiens; breast, MDA-MB-231, 48 h. As for the experimental part:
as §1, §2

For the next test, the system named is MCF-7. In words: PrestoBlue cell viability, MCF-7. Format: cell-based. As to conditions: Homo sapiens, MCF7; breast, MCF-7, 48 h. As for the experimental part:
as §1, §2

Bounds are passed on as bounds.

A word on the IC50: it is the concentration that inhibits the measured activity by half. In the case of `COc1cc([C@@H]2C3=C(COC3=O)Cc3cc4c(cc32)OCO4)cc(OC)c1OC(=O)c1ccccc1` [example 2, Benzoic acid (5S)-2,6-dimethoxy-4-(6-oxo-5,6,8,9-tetrahydrofuro[3′,4′:6,7]naphtho[2,3-d][1,3]dioxol-5-yl)-phenyl ester], the IC50 was not below 50 µM in the test on WI-38 (Homo sapiens); more than 50 µM in the test on WI-38; more than 50 µM in the test on H1975; more than 50 µM in the test with HUVEC; not below 50 µM in the test on HUVEC (Homo sapiens); 202 nM in the test with A549. For the same compound, the IC50 with H1299 is more than 50 µM; in the test with HCT-116, 1390 nM; in the test with H460 it was 134 nM; in the test with WI-26 (Homo sapiens, 48 h), not below 50 µM; in the test on WI-26, more than 50 µM; in the test with HL-60 it was 250 nM. Also, the IC50 in the test with HCC827, in the test on H1650, in the test with CFPAC-1, in the test on H146, in the test with K562 and with BxPC-3 was more than 50 µM each time. Moreover, the IC50 in the test on MDA-MB-231 and in the test on MCF-7 was more than 50 µM throughout.
